In test [1] the test system is primary human T-cells. The experiment in a line: T-cell proliferation assay (CellTiter-Glo). In kind it is cell-based. Conditions: CD3 condition; for Emax proliferation (% activation): 5 days, 20 μM reference compound A1 = 100%; for EC50: proliferation after 5 days, CellTiter-Glo, read-out: Tcell Proliferation CD3 EC50. On the procedure:
For coating of plates, PBS++ only or PBS++ with CD3 antibody (concentration depending on donor and determined by CD3 titrations) is added 100 μl/well to Poly-D Lysine coated 96-well plates. Plates are sealed and incubated at room temperature for 3 hours on a table-top rocking platform. After incubation, plates are washed once with PBS−− and filled with 40 μl/well culture medium only. Compounds are then added (see next section) to medium only plates. After 3 hours of culturing the T-cells, cells are filtered through a cell strainer (Miltenyi Biotech, #130-041-407), counted again and concentration is adjusted to 1.25 Mio/ml.
Cells are then seeded 80 μl/well to the 40 μl/well including dispensed compounds according to plate layout. By adding cells, compounds are further diluted 1:3, and resulting in 100 k cells/120 μl/well. After 48 hours 40 μl of supernatant is collected carefully from the top while not disturbing the cells. Cells are assessed for proliferation 5 days later by measuring […] using CellTiterGlo (Promega).
Compounds were added in a 5 or 6 pt dose response with the Tecan D300e Digital Dispenser, all conditions 3 times more concentrated than the end-concentration, since cells are added afterwards (80 μl cells to 40 μl prepared medium with treatment). […] The positive control was the reference compound A1 that was added in a dose response as well, additionally to 3 wells of only 20 μM representing the positive stimulator control. All wells were normalized with DMSO to a final concentration of 0.6% (0.2% end-concentration).
After 5 days, for detection of ATP which is directly proportional to the number of cells present per well, the CellTiter-Glo® 2.0 Reagent is used. After visual control for toxicity or precipitations of the tested compounds, the plates are equilibrated to room temperature for 45 minutes. CellTiter-Glo® 2.0 Reagent is equilibrated to room temperature as well. After equilibration, an equal amount of CellTiter-Glo reagent is added to the cells (80 μl/well) with an electronic multichannel pipette. Plates are placed on a rocking platform for 15 minutes at room temperature. After incubation, the bottom of the plates is sealed with backing tape. Luminescence is measured with PHERAstar FSX (interval time 0.5 sec, gain 3000, focal height 15 mm) and exported as CSV file for analysis in Genedata screener.
Calculations and Data Reporting CD3 and PBS plates were analysed separately in Genedata Screener using Roche Normalization PCT_POS_CTRL with DMSO set as Neutral Control and 20 μM of the reference compound A1 set as Stimulator Control/100%.
For CD3 conditions EC50 and Emax of the fitted sigmoidal curve were reported. If no curve could be fitted, the EC50 was reported as blank field and the Emax was based on individual data points. […] Compounds which activate unstimulated cells (see IL2 measurements) or compounds which negatively affected viability were flagged.

Test [2] deals with DGKzeta (hDGKzeta(1-928)-N-His) (Homo sapiens (Human), UniProt Q13574). The experiment in a line: In vitro DGK inhibition assay, ADP-Glo (in house), DGKzeta. In kind it is biochemical. Conditions: DLG liposomes, 50 μM ATP, 2 nM enzyme, 1 hour reaction. On the procedure:
(§1) DGK α and ζ kinases use ATP to phosphorylate the substrate 1,2-dilauroyl-sn-glycerol (DLG, incorporated in the liposomes). ATP is converted to ADP as a result of this enzymatic reaction.
(§2) After the kinase reaction, an ATP-depletion reagent is added to terminate the kinase reaction and deplete any remaining ATP, leaving only ADP. Second, a detection reagent is added to simultaneously convert ADP to ATP and allow the newly synthesized ATP to be converted to light using a coupled luciferase/luciferin reaction.
(§3) Purification of both enzymes was performed as previously described by Takahashi et al., PeerJ, 2018 (Takahashi, D.; Sakane, F. Expression and purification of human diacylglycerol kinase alpha from baculovirus-infected insect cells for structural studies. PeerJ 2018, 6, No. e5449).
(§4) A concentrated liposome solution was prepared in assay buffer without DTT and BSA: 2 mM of DLG in 21 mM of total liposome (2 mM DLG/8 mM PS/11 mM PC). The reaction mixtures contain the assay buffer with a final DLG concentration of 125 uM ATP concentrations of 25 μM (for DGKA assay) or 50 μM (for DGKZ assay). The reactions were started by addition of DGK α and ζ kinases at 4 nM and 2 nM final concentrations, respectively. After 1 hour reaction, the amount of ADP formed was detected with the ADP-Glo kinase assay (Promega) according to the manufacturer instructions. Compounds were added in 11-points dose response, starting at […], 1:3 dilutions, with a final DMSO concentration of 2%. The multidrop combi was used as a liquid handler and luminescence was read with 0.5 s by the envision reader (PE).

Test [3] has as its system primary human T-cells. Nature of the test: IL2 secretion measurements in CD3-stimulated T-cells. The conditions noted are these: CD3 condition; for Emax IL2 (% activation): 24 hours, 20 μM reference compound A1 = 100%; for EC50: IL2 secretion after 24 hours, read-out: Tcell IL2 CD3 EC50. Type of test: cell-based. As for the experimental part:
As readouts for T-cell activation, 1L2 secretion after 24 hours and proliferation after 5 days was measured. Increases in 1L2 secretion and proliferation upon compound treatment were assessed as the % of the maximum of reference compound A1. WO 2016/139181 discloses reference compound A1 as example 70. As a counter screen and to make sure that no unwanted TCR-independent activation was triggered, PBS conditions were run for all compounds.
Expanded primary human T-cells were thawed and cultured in RPMI 1640 (Gibco, #61870-010)+5% human serum (HS, Sigma, #H3667)+1 mM Sodium Pyruvate (Gibco, #11360-039)+50 μM 2-mercaptoethanol (Gibco, #31350-010) and 1× Pen-Strep (Life Technologies, #15140122) medium at density of 2 Mio/ml for 3 hours in 5% CO2, 37° C. and 95% humidity. For coating of plates, […] or PBS++ with CD3 antibody (concentration depending on donor and determined by CD3 titrations) was added 100 μl/well to Poly-D Lysine coated 96-well plates. Plates were sealed and incubated at room temperature for 3 hours on a table-top rocking platform. After incubation, plates were washed once with PBS−− and filled with 40 μl/well culture medium only. Compounds were then added (see next section) to medium only plates. After 3 hours of culturing the T-cells, cells were filtered through a cell strainer (Miltenyi Biotech, #130-041-407), counted again and concentration was adjusted to 1.25 Mio/ml.
Cells were then seeded 80 μl/well to the 40 μl/well including dispensed compounds according to plate layout. By adding cells, compounds were further diluted 1:3, and resulting in 100 k cells/120 μl/well. After 24 hours 40 μl of supernatant was collected carefully from the top while not disturbing the cells and transferred into a round bottom 96 well plate. Collected and frozen supernatant was used for detection of IL2 using the IL-2 Human ProQuantum Immunoassay Kit (Invitrogen) or using the Human IL-2 ELISA Kit (Thermo Fisher).
Compounds were added in a 5 or 6 pt dose response with the Tecan D300e Digital Dispenser, all conditions 3 times more concentrated than the end-concentration, since cells are added afterwards (80 μl cells to 40 μl prepared medium with treatment). The DR was starting at 20 μM or 10 μM final top concentration and a dilution factor of 3.333. The positive control was the reference compound A1 that was added in a dose response as well, additionally to 3 wells of only 20 μM representing the positive stimulator control. All wells were normalized with DMSO to a final concentration of 0.6% (0.2% end-concentration).
The immunoassay is done following the manufacturer's manual (Invitrogen, #A35603). Additional information: For the immunoassay, MicroAmp™ EnduraPlate™ Optical 384-Well plates are used. Frozen supernatant is thawed and centrifuged for 5 minutes at 1000×g, both steps at 4° C. After centrifugation, required sample amount is taken from the top, and in a separate LightCycler V-bottom plate (working plate) diluted with assay dilution buffer, dilution factor depending on the PBS or CD3 condition but at least 1:3. IL-2 standard and blanks are prepared in the same V-bottom plate, standard with a range of […] (extended version). After preparation, 5 μl of sample dilutions or standard/blanks are transferred to the optical 384-well plate (assay plate) and the 10 μl reaction protocol is being followed. For measurement, the QuantStudio 12K Flex system is used. Raw data is extracted and IL-2 concentrations are calculated with the Thermo Fisher online app (apps.thermofisher.com/apps/proquantum).
ELISA is done following the manufacturer's manual (Thermo Fisher Scientific, #88-7025-88). Additional information: For the ELISA Nunc MaxiSorp 96 well plates are used. Frozen supernatant is thawed and centrifuged for 5 minutes at 1000×g, both steps at 4° C. […]

Test [4] concerns the target DGKalpha (hDGKalpha(1-735)-N-His) (Homo sapiens (Human), UniProt P23743). Nature of the test: In vitro DGK inhibition assay, ADP-Glo (in house), DGKalpha. Type of test: biochemical. Conditions: DLG liposomes, 25 μM ATP, 4 nM enzyme, 1 hour reaction. On the procedure: as §1, §2, §3, §4

Sequence of DGKzeta (hDGKzeta(1-928)-N-His) (Q13574 whole entry): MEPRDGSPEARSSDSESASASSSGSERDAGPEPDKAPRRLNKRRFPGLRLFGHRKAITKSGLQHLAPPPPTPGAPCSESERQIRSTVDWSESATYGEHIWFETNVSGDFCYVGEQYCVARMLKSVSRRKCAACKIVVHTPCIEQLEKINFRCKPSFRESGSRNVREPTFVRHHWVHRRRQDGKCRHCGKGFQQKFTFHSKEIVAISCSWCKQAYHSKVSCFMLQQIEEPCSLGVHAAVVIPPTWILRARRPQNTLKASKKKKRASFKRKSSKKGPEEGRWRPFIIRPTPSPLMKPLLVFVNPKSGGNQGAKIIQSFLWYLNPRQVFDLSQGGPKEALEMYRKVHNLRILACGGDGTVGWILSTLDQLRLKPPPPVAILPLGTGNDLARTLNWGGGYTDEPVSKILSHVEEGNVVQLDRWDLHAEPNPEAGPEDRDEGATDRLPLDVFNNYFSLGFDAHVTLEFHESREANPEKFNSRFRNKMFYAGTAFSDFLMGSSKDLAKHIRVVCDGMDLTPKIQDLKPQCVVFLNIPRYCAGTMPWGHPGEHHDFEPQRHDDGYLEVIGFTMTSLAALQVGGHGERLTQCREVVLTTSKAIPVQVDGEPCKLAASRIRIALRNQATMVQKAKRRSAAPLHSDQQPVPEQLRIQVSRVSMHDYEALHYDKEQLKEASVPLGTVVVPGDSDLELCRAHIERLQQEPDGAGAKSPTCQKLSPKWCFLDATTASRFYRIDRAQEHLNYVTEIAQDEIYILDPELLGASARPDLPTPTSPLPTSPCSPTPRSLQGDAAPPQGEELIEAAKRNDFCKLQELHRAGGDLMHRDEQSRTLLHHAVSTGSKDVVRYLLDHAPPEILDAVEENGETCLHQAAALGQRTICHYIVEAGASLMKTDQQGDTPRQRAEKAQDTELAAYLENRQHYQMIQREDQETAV
Sequence of DGKalpha (hDGKalpha(1-735)-N-His) (P23743 whole entry): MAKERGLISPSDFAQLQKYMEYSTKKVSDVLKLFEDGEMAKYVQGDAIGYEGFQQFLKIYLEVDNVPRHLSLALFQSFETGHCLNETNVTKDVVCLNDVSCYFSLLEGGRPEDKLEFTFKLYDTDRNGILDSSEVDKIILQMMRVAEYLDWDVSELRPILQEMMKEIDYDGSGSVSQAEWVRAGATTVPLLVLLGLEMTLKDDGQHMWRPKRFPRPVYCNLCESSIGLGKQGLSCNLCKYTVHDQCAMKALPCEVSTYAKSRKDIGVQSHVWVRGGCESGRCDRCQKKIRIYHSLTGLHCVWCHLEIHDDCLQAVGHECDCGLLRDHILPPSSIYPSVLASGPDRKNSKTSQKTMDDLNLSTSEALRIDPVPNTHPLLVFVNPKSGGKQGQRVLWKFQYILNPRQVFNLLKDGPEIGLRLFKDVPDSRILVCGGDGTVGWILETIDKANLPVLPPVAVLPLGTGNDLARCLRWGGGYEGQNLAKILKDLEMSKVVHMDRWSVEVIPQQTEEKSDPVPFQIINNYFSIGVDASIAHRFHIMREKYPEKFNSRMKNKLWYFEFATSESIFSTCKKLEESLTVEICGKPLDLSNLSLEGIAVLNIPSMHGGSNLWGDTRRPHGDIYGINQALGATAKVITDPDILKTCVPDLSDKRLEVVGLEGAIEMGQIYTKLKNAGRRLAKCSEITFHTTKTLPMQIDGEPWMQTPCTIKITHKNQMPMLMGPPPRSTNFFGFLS

The term IC50 denotes the concentration that gives 50% inhibition. Read a low IC50 as greater potency in that assay. On to `COc1ccc(-c2ccc(CN3C(=O)[C@@H](N)CS(=O)(=O)c4cc(F)c(-c5ccc(C(C)C)nc5)cc43)cc2)cc1` [Example 29, (3R)-3-amino-8-fluoro-7-(6-isopropyl-3-pyridyl)-5-[[4-(4-methoxyphenyl)phenyl]methyl]-1,1-dioxo-2,3-dihydro-1λ6,5-benzothiazepin-4-one], for which, in the test with primary human T-cells [1], the “Emax proliferation (% activation)” value is 38 % activation. The EC50 with primary human T-cells [1] (Homo sapiens, T-cell, 120 h) is 0.071 µM; in the test with primary human T-cells [3] (Homo sapiens, T-cell), 0.453 µM. The IC50 in test [2] is 13.6 µM; in test [4] it was 18.8 µM. Further, the “Emax IL2 (% activation)” value with primary human T-cells [3] was 110 % activation.
For the compound `N[C@H]1CS(=O)(=O)c2cc(F)c(-c3nncc(N4CCC(F)(F)CC4)n3)cc2N(Cc2ccc(Cl)cc2)C1=O` [Example 17, (3R)-3-amino-5-[(4-chlorophenyl)methyl]-7-[5-(4,4-difluoro-1-piperidyl)-1,2,4-triazin-3-yl]-8-fluoro-1,1-dioxo-2,3-dihydro-1λ6,5-benzothiazepin-4-one], in the test with primary human T-cells [1], the “Emax proliferation (% activation)” value is on record as 104 % activation. For the same compound, the EC50 amounted to 0.342 µM with primary human T-cells [1] (Homo sapiens, T-cell, 120 h) and 0.449 µM in the test with primary human T-cells [3] (Homo sapiens, T-cell). In addition, the half-maximal inhibitory concentration (IC50) in test [2] came to 0.65 µM; in test [4], 7.88 µM. In the test with primary human T-cells [3], the “Emax IL2 (% activation)” value stood at 62 % activation.
As for `CC(C)(C)c1cc(-c2cc3c(cc2F)S(=O)(=O)C[C@@H](N)C(=O)N3Cc2ccc(-c3noc(C(F)(F)F)n3)cc2)cnn1` [Example 35], in the test with primary human T-cells [1], the “Emax proliferation (% activation)” value amounted to 132 % activation and the EC50 was 1.04 µM. In test [2], this compound returned an IC50 of 17.2 µM. Also, in the test on primary human T-cells [3], the “Emax IL2 (% activation)” value was 480 % activation and the EC50 was 3.13 µM. This compound also displayed an IC50 in test [4] of 19.9 µM.
For `N[C@H]1CS(=O)(=O)c2cc(F)c(-c3cnnc(OCC(F)(F)F)c3)cc2N(Cc2ccc(-c3noc(C(F)(F)F)n3)cc2)C1=O` [Example 33, (3R)-3-amino-8-fluoro-1,1-dioxo-7-[6-(2,2,2-trifluoroethoxy)pyridazin-4-yl]-5-[[4-[5-(trifluoromethyl)-1,2,4-oxadiazol-3-yl]phenyl]methyl]-2,3-dihydro-1λ6,5-benzothiazepin-4-one], the “Emax proliferation (% activation)” value in the test with primary human T-cells [1] turned out to be 103 % activation. The EC50 was found to be 0.298 µM in the test with primary human T-cells [1] (Homo sapiens, T-cell, 120 h) and 2.23 µM with primary human T-cells [3] (Homo sapiens, T-cell). Further, the IC50 in test [2] is 20 µM; in test [4] it was 22.2 µM. Besides, the “Emax IL2 (% activation)” value in the test with primary human T-cells [3] came out at 154 % activation.
`N[C@H]1CS(=O)(=O)c2cc(F)c(-c3cncc(N4CCOCC4)c3)cc2N(Cc2ccc(-c3noc(C(F)(F)F)n3)cc2)C1=O` [Example 21, (3R)-3-amino-8-fluoro-1,1-diketo-7-(5-morpholino-3-pyridyl)-5-[4-[5-(trifluoromethyl)-1,2,4-oxadiazol-3-yl]benzyl]-2,3-dihydro-1λ6,5-benzothiazepin-4-one]: the “Emax proliferation (% activation)” value in the test with primary human T-cells [1] stood at 140 % activation. The EC50 was 3.76 µM in the test on primary human T-cells [1] (Homo sapiens, T-cell, 120 h) and 6.78 µM in the test on primary human T-cells [3] (Homo sapiens, T-cell). In addition, the IC50 in test [2] amounted to 8.77 µM; in test [4], 31 µM. For the same compound, in the test with primary human T-cells [3], the “Emax IL2 (% activation)” value worked out at 131 % activation.
As for “(3R)-3-amino-5-(4-chlorobenzyl)-8-fluoro-1,1-diketo-7-[5-(trifluoromethoxy)-3-pyridyl]-2,3-dihydro-1λ6,5-benzothiazepin-4-one [Example 5]”, in the test on primary human T-cells [1], the EC50 amounted to 0.319 µM. Also, in the test on primary human T-cells [3], the “Emax IL2 (% activation)” value is 100 % activation and the EC50 stood at 0.604 µM. Also, the IC50 in test [4] is greater than 62.5 µM.
`CC(C)(C)c1cc(-c2cc3c(cc2F)S(=O)(=O)C[C@H](N)C(=O)N3Cc2ccc(-c3noc(C(F)(F)F)n3)cc2)cnn1` [Example 34, (3R)-3-amino-7-(6-tert-butylpyridazin-4-yl)-8-fluoro-1,1-dioxo-5-[[4-[5-(trifluoromethyl)-1,2,4-oxadiazol-3-yl]phenyl]methyl]-2,3-dihydro-1λ6,5-benzothiazepin-4-one]: the “Emax proliferation (% activation)” value in the test on primary human T-cells [1] came out at 127 % activation. The EC50 in the test with primary human T-cells [1] (Homo sapiens, T-cell, 120 h) turned out to be 0.361 µM; in the test with primary human T-cells [3] (Homo sapiens, T-cell) it was 1.4 µM. For the same compound, the values for the IC50 in test [2] and in test [4] were 7.56 µM and 13.4 µM, respectively. For the same compound, the “Emax IL2 (% activation)” value in the test with primary human T-cells [3] was determined as 96 % activation.

These data come from patent publication US20250236617A1, “BICYCLIC TETRAHYDROTHIAZEPINE DERIVATIVES” (Hoffmann-La Roche Inc., priority 2022, published 2025).
